In US12595269B2, “Morpholine-like monoamine releasers” (Solvonis Therapeutics Ireland Holdings Limited, priority 2022, dated 2026):
Read-outs that look alike come from different tables or passages of the source.

Columns and labels:
[1] = Lipophilicity by Chromatographic Hydrophobicity Index (CHI LogD); assay type: physicochemical
Experimental: Methods and Procedure: The methods employed herein comply with previously described procedures to assure data integrity and adherence to GLP regulations. Briefly, a CHI value was determined by comparing the retention time of a test compound to a linear curve based on a set of calibration compounds with known CHI values. The resultant CHI value can be further converted to a CHI Log D value using an established linear regression equation.
Reference compounds with known CHI values, including theophylline, phenyltetrazole, benzymidazole, colchicine, phenyltheophylline, acetophenone, indole, propiophenone, butyrophenone, valerophenone, were used to create a calibration line. Test compounds (10 mM) were prepared in DMSO on the same day of the experiment, when feasible. For sample preparation, 10 μL of test solution was diluted with 190 μL of a solution of Ammonium Acetate solution (50 mM) and Acetonitrile (1:1) pH7.4, which was then mixed via shaking at room temperature for 10 minutes. Test solutions were compared with the reference compounds via HPLC-UV, as described in Example 19. The gradient was calibrated by determining the retention time of each reference compound on a reverse phase LC system at a pH of 7.4.
The relationship of CHI with retention time is “CHI=Atr+B,” wherein A and B are the constants of a linear plot of CHI against their gradient retention times, and tr is retention time.
The test compounds were analyzed on the same system as the test mix. The equation generated from the calibration line for the reference compounds was then used to determine the unknown CHI value for the test compound. From the CHI value, the Log D was extrapolated according to the following equation, as described in Valko et al, 2001: Log D=0.0525×CHI pH7.4-1.467. Log D represents the log of the partitioning of a chemical compound between the lipid and aqueous phases.

human DAT = target: T1, human DAT (Homo sapiens, UniProt Q01959); test: DAT uptake scintillation proximity assay, inhibition of [3H]-dopamine uptake in hDAT-CHO cells; assay type: cell-based; settings: read-out: DAT update pIC50 (converted)
T1 construct: expressed in transfected cells; host or cells: CHO
T1 sequence (Q01959 whole entry): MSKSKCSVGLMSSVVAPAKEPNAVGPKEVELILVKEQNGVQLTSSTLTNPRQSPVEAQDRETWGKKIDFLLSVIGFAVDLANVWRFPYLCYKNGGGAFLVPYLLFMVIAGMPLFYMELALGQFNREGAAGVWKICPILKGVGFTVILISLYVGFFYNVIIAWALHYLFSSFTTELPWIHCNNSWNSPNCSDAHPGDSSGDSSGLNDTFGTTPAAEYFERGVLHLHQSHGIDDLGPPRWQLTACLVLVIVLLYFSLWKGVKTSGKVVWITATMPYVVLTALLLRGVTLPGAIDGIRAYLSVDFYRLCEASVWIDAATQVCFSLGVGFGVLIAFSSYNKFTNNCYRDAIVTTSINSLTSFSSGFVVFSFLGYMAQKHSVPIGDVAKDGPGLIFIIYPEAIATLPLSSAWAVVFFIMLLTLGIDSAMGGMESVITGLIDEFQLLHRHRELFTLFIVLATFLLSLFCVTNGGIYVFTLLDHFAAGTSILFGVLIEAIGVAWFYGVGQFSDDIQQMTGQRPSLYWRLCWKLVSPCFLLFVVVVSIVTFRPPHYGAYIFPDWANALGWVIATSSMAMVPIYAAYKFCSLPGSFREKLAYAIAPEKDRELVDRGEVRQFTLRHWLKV
Experimental: Overview: Eighty-eight compounds were tested in SERT (serotonin transporter) and DAT (dopamine transporter) uptake assays (completed as scintillation proximity assays, or SPAs, in a recombinant CHO cell line). Fifty-two compounds were tested in release assays for 5-HT and DA release in rat synaptosomes.
Methods and Procedure-Uptake: The potency of the compounds described herein for inhibiting DAT function was measured using an uptake assay in a recombinant CHO cell line stably expressing human DAT (hDAT-CHO). Potency was measured in terms of pIC50 by testing for inhibition of [^3H]-dopamine uptake in hDAT-CHO cells in a 384-well format scintillation proximity assay (SPA).
Briefly, on experiment days, hDAT-CHO cells were detached using Versene and added at a density of approximately 300,000 cells/mL to the SPA Mixture, which contains the following components in Assay Buffer (20 mM HEPES, 145 mM NaCl, 5 mM KCl, 2 mM CaCl2, 1 mM MgCl2, 5.5 mM glucose, 0.01% Pluronic F127, pH 7.3): 0.75 mg/mL SPA Imaging beads (RPNQ0001, PerkinElmer), 10 μM pargyline and 80 nM of [^3H]-dopamine (NET673, PerkinEImer). The SPA Mixture was added 20 μL/well to 384 well plates containing 0.1 μL/well of test compound in neat DMSO (11 points of 1:5 serial dilution, 0.5% DMSO final) or 0.1 μL of DMSO (total uptake) or 0.1 μL of the standard inhibitor indatraline (at 1 μM final concentration, as nonspecific uptake). Plates were sealed with a Top-seal A and read using a Microbeta counter (PerkinEImer) after 45 minutes of incubation at room temperature.
For both tests, the raw experimental data (cpm) were elaborated for the determination of pIC50/IC50 values as % inhibition of specific uptake. Concentration-response curves of MDMA, MDDMA, citalopram and GBR-12909 were used as internal standards in all experiments, and the signal window was monitored in each plate performing Z′ calculations, as described in Zhang et al., J. Biomol. Screen., 1999; 4: 67-73.

[2] = pH 7.4, as stated in text under Table 10, read-out: calculated Log D values
[3] = pH 7.4, pH 7.4, HPLC-UV, read-out: Chi LogD

SMILES	chromatographic logD [1, 2]	chromatographic logD [1, 3]	IC50 (human DAT) [nM]
Clc1ccc([C@]23CN[C@H](CO2)C3)cc1Cl (single isomer, unassigned) [516A]	1.15	0.75	72.4
Clc1ccc([C@@]23CN[C@@H](CO2)C3)cc1Cl (single isomer, unassigned) [518A]	1.15	0.75	89.1
Clc1ccc(C23CNC(CO2)C3)cc1Cl (centres unmarked) [522A, 1-(3,4-dichlorophenyl)-2-oxa-5-azabicyclo[2.2.1]heptane]	1.15	0.75	63.1
CNC(C)Cc1ccc2c(c1)OCO2 (centres unmarked) [MDMA, reference compound]	0.29	0.29	–
